Measured values: the supplement of paper PMC10307832

Columns and labels:
Assay in all cases: relative viability (nuclei count vs DMSO), 5 days (fraction); higher = more cells survive
[1] = compound: Cc1ccc(NC(=O)c2ccc(CN3CCN(C)CC3)cc2)cc1Nc1nccc(-c2cccnc2)n1 [Imatinib]
Summary of the method: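 After an overnight hold at 37 °C, lung cancer cell lines in 1536-well plates were pinned with five library-drug doses (not always all listed), each √10 from the next, on vehicle-anchored plates. The cells stayed 5 days without fresh medium, then a one-step fix, permeabilisation and Hoechst stain preceded 4× imaging and MetaXpress nuclear counts. A plate passed only with control CV under 25% and at least one doubling. Viability is the median, over plates, of treated-well nuclei relative to vehicle-well nuclei.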

[2] = compound: Cc1ccc(NC(=O)c2ccc(CN3CCN(C)CC3)cc2)cc1Nc1nccc(-c2cccnc2)n1 [Imatinib] + Cc1cc(Nc2cc(N3CCN(C)CC3)nc(Sc3ccc(NC(=O)C4CC4)cc3)n2)n[nH]1 [Tozasertib] (partner 0.1 µM)
Summary of the method: (§1)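 Relative viability equals treated-well nuclei counts divided by vehicle-well nuclei counts. Counts came from 4× images of lung cancer cell lines grown in 1536-well plates for 5 days after pin-tool dosing on the day after seeding. Dosing used one drug alone or a fixed anchor-drug dose plus five library-drug doses (not always all listed) in √10 steps, and values are medians of duplicate plates.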

[3] = compound: Cc1ccc(NC(=O)c2ccc(CN3CCN(C)CC3)cc2)cc1Nc1nccc(-c2cccnc2)n1 [Imatinib] + Nc1ncn([C@H]2C[C@H](O)[C@@H](CO)O2)c(=O)n1 [Decitabine] (partner 2 µM)
Summary of the method: as §1

[4] = compound: Cc1ccc(NC(=O)c2ccc(CN3CCN(C)CC3)cc2)cc1Nc1nccc(-c2cccnc2)n1 [Imatinib] + N=C(N)NC(=N)NCCc1ccccc1 [Phenformin] (partner 250 µM)
Summary of the method: as §1

[5] = compound: Cc1ccc(NC(=O)c2ccc(CN3CCN(C)CC3)cc2)cc1Nc1nccc(-c2cccnc2)n1 [Imatinib] + CC(=O)Nc1cccc(-n2c(=O)n(C3CC3)c(=O)c3c(Nc4ccc(I)cc4F)n(C)c(=O)c(C)c32)c1 [Trametinib] (partner 0.02 µM)
Summary of the method: as §1

[6] = compound: Cc1ccc(NC(=O)c2ccc(CN3CCN(C)CC3)cc2)cc1Nc1nccc(-c2cccnc2)n1 [Imatinib] + COc1cc2c(Oc3ccc(NC(=O)C4(C(=O)Nc5ccc(F)cc5)CC4)cc3F)ccnc2cc1OCCCN1CCOCC1 [Foretinib] (partner 0.25 µM)
Summary of the method: as §1

[7] = compound: Cc1ccc(NC(=O)c2ccc(CN3CCN(C)CC3)cc2)cc1Nc1nccc(-c2cccnc2)n1 [Imatinib] + NC(=O)Nc1cc(-c2cccc(F)c2)sc1C(=O)N[C@H]1CCCNC1 [AZD7762] (partner 0.2 µM)
Summary of the method: as §1

[8] = compound: Cc1ccc(NC(=O)c2ccc(CN3CCN(C)CC3)cc2)cc1Nc1nccc(-c2cccnc2)n1 [Imatinib] + Cc1nc(Nc2ncc(C(=O)Nc3c(C)cccc3Cl)s2)cc(N2CCN(CCO)CC2)n1 [Dasatinib] (partner 0.075 µM)
Summary of the method: as §1

[9] = compound: Cc1ccc(NC(=O)c2ccc(CN3CCN(C)CC3)cc2)cc1Nc1nccc(-c2cccnc2)n1 [Imatinib] + O=C(c1cc(Cc2n[nH]c(=O)c3ccccc23)ccc1F)N1CCN(C(=O)C2CC2)CC1 [Olaparib] (partner 8 µM)
Summary of the method: as §1

[10] = compound: Cc1ccc(NC(=O)c2ccc(CN3CCN(C)CC3)cc2)cc1Nc1nccc(-c2cccnc2)n1 [Imatinib] + O=C(CCCCCCC(=O)Nc1ccccc1)NO [Vorinostat] (partner 1 µM)
Summary of the method: as §1

[11] = compound: Cc1ccc(NC(=O)c2ccc(CN3CCN(C)CC3)cc2)cc1Nc1nccc(-c2cccnc2)n1 [Imatinib] + Nc1nc2[nH]cc(CCc3ccc(C(=O)N[C@@H](CCC(=O)O)C(=O)O)cc3)c2c(=O)[nH]1 [Pemetrexed] (partner 0.2 µM)
Summary of the method: as §1

[12] = compound: Cc1ccc(NC(=O)c2ccc(CN3CCN(C)CC3)cc2)cc1Nc1nccc(-c2cccnc2)n1 [Imatinib] + CCNC(=O)c1noc(-c2cc(C(C)C)c(O)cc2O)c1-c1ccc(CN2CCOCC2)cc1 [Luminespib] (partner 0.01 µM)
Summary of the method: as §1

[13] = compound: Cc1ccc(NC(=O)c2ccc(CN3CCN(C)CC3)cc2)cc1Nc1nccc(-c2cccnc2)n1 [Imatinib] + CC(=O)c1c(C)c2cnc(Nc3ccc(N4CCNCC4)cn3)nc2n(C2CCCC2)c1=O [Palbociclib] (partner 0.5 µM)
Summary of the method: as §1

[14] = compound: Cc1ccc(NC(=O)c2ccc(CN3CCN(C)CC3)cc2)cc1Nc1nccc(-c2cccnc2)n1 [Imatinib] + COc1cccc2cc(-c3nc([C@H]4CC[C@H](C(=O)O)CC4)n4ncnc(N)c34)[nH]c12 [OSI-027] (partner 0.5 µM)
Summary of the method: as §1

In the case of NCI-H2342, the relative viability ([1]; 0.02 µM) is reported as 0.896, the relative viability ([1]; 0.06325 µM) is reported as 0.891 and the relative viability ([1]; 0.2 µM) is reported as 0.972. The relative viability ([1]; 0.6325 µM) was 0.943, the relative viability ([1]; 2 µM) was 0.998 and the relative viability ([2]; first compound 0.02 µM) was 0.6. For the same cell line, the relative viability ([2]; first compound 0.06325 µM) was 0.511, the relative viability ([2]; first compound 0.2 µM) was 0.499 and the relative viability ([2]; first compound 0.6325 µM) was 0.502. It also gave a relative viability ([2]; first compound 2 µM) of 0.494, a relative viability ([3]; first compound 0.02 µM) of 0.745 and a relative viability ([3]; first compound 0.06325 µM) of 0.713. The relative viability ([3]; first compound 0.2 µM) was 0.779, the relative viability ([3]; first compound 0.6325 µM) was 0.679 and the relative viability ([3]; first compound 2 µM) was 0.71. For the same cell line, the relative viability ([4]; first compound 0.02 µM) was 0.633, the relative viability ([4]; first compound 0.06325 µM) was 0.57 and the relative viability ([4]; first compound 0.2 µM) was 0.587. The relative viability ([4]; first compound 0.6325 µM) was 0.573, the relative viability ([4]; first compound 2 µM) was 0.561 and the relative viability ([5]; first compound 0.02 µM) was 0.847. The relative viability ([5]; first compound 0.06325 µM) was 0.814, the relative viability ([5]; first compound 0.2 µM) was 0.869 and the relative viability ([5]; first compound 0.6325 µM) was 0.828. For the same cell line, the relative viability ([5]; first compound 2 µM) was 0.853, the relative viability ([6]; first compound 0.02 µM) was 1.15 and the relative viability ([6]; first compound 0.06325 µM) was 1.25. The relative viability ([6]; first compound 0.2 µM) was 1.18, the relative viability ([6]; first compound 0.6325 µM) was 0.97 and the relative viability ([6]; first compound 2 µM) was 0.966. The relative viability ([7]; first compound 0.02 µM) was 0.434, the relative viability ([7]; first compound 0.06325 µM) was 0.493 and the relative viability ([7]; first compound 0.2 µM) was 0.443. For the same cell line, the relative viability ([7]; first compound 0.6325 µM) was 0.455, the relative viability ([7]; first compound 2 µM) was 0.553 and the relative viability ([8]; first compound 0.02 µM) was 0.289. The relative viability ([8]; first compound 0.06325 µM) was 0.326, the relative viability ([8]; first compound 0.2 µM) was 0.321 and the relative viability ([8]; first compound 0.6325 µM) was 0.321. For the same cell line, the relative viability ([8]; first compound 2 µM) was 0.316, the relative viability ([9]; first compound 0.02 µM) was 0.44 and the relative viability ([9]; first compound 0.06325 µM) was 0.404. For the same cell line, the relative viability ([9]; first compound 0.2 µM) was 0.466, the relative viability ([9]; first compound 0.6325 µM) was 0.473 and the relative viability ([9]; first compound 2 µM) was 0.426. For the same cell line, the relative viability ([10]; first compound 0.02 µM) was 0.766, the relative viability ([10]; first compound 0.06325 µM) was 0.789 and the relative viability ([10]; first compound 0.2 µM) was 0.772. For the same cell line, the relative viability ([10]; first compound 0.6325 µM) was 0.865, the relative viability ([10]; first compound 2 µM) was 0.745 and the relative viability ([11]; first compound 0.02 µM) was 0.688. It also gave a relative viability ([11]; first compound 0.06325 µM) of 0.665, a relative viability ([11]; first compound 0.2 µM) of 0.834 and a relative viability ([11]; first compound 0.6325 µM) of 0.738. The relative viability ([12]; first compound 0.02 µM) was 0.787, the relative viability ([12]; first compound 0.06325 µM) was 0.757 and the relative viability ([12]; first compound 0.2 µM) was 0.728. The relative viability ([12]; first compound 0.6325 µM) was 0.649, the relative viability ([12]; first compound 2 µM) was 0.715 and the relative viability ([13]; first compound 0.02 µM) was 0.506. It also gave a relative viability ([13]; first compound 0.06325 µM) of 0.586, a relative viability ([13]; first compound 0.2 µM) of 0.504 and a relative viability ([13]; first compound 0.6325 µM) of 0.503. For the same cell line, the relative viability ([13]; first compound 2 µM) was 0.539, the relative viability ([14]; first compound 0.02 µM) was 0.667 and the relative viability ([14]; first compound 0.06325 µM) was 0.539. It also gave a relative viability ([14]; first compound 0.2 µM) of 0.636, a relative viability ([14]; first compound 0.6325 µM) of 0.596 and a relative viability ([14]; first compound 2 µM) of 0.665.
